Results as given in patent publication US20230374038A1, “MODULATORS OF CYSTIC FIBROSIS TRANSMEMBRANE CONDUCTANCE REGULATOR” (VERTEX PHARMACEUTICALS INCORPORATED, priority 2020, published 2023).

Biological target: CFTR (Homo sapiens, UniProt P13569)
Assay: Membrane Potential Dye, Enteroid Assay B
Format: cell-based
Settings: for EC50: read-out: Ent. B EC50
Procedure: Base medium (ADF+++) consisted of Advanced DMEM/Ham's F12, 2 mM Glutamax, 10 mM HEPES, 1 µg/mL penicillin/streptomycin.
Intestinal enteroid maintenance medium (IEMM) consisted of ADF+++, 1× B27 supplement, 1× N2 supplement, 1.25 mM N-acetyl cysteine, 10 mM Nicotinamide, 50 ng/mL hEGF, 10 nM Gastrin, 1 pg/mL hR-spondin-1, 100 ng/mL hNoggin, TGF-b type 1 inhibitor A-83-01, 100 μg/mL Primocin, […] P38 MAPK inhibitor SB202190.
Bath 1 Buffer consisted of 1 mM MgCl2, 160 mM NaCl, 4.5 mM KCl, 10 mM HEPES, 10 mM Glucose, 2 mM CaCl2).
Chloride Free Buffer consisted of 1 mM Magnesium Gluconate, 2 mM Calcium Gluconate, 4.5 mM Potassium Gluconate, 160 mM Sodium Gluconate, 10 mM HEPES, 10 mM Glucose.
Bath1 Dye Solution consisted of Bath 1 Buffer, 0.04% Pluronic F127, […] Methyl Oxonol, 30 μM CaCCinh-A01, 30 μM Chicago Sky Blue.
Chloride Free Dye Solution consisted of Chloride Free Buffer, 0.04% Pluronic F127, 20 μM Methyl Oxonol, 30 μM CaCCinh-A01, 30 μM Chicago Sky Blue.
Chloride Free Dye Stimulation Solution consisted of Chloride Free Dye Solution, 10 μM forskolin, 100 μM IBMX, and 300 nM Compound III.
Human intestinal epithelial enteroid cells were obtained from the Hubrecht Institute for Developmental Biology and Stem Cell Research, Utrecht, The Netherlands and expanded in T-Flasks as previously described (Dekkers J F, Wiegerinck C L, de Jonge H R, Bronsveld I, Janssens H M, de Winter-de Groot K M, Brandsma A M, de Jong N W M, Bijvelds M J C, Scholte B J, Nieuwenhuis E E S, van den Brink S, Clevers H, van der Ent C K, Middendorp S and M Beekman J M. A functional CFTR assay using primary cystic fibrosis intestinal organoids. Nat Med. 2013 July; 19(7):939-45.).
Cells were recovered in cell recovery solution, collected by centrifugation at 650 rpm for 5 min at 4° C., resuspended in TryPLE and incubated for 5 min at 37° C. Cells were then collected by centrifugation at 650 rpm for 5 min at 4° C. and resuspended in IEMM containing 10 μM ROCK inhibitor (RI). The cell suspension was passed through a 40 μm cell strainer and resuspended at 1×10^6 cells/mL in IEMM containing 10 μM RI. Cells were seeded at 5000 cells/well into multi-well plates and incubated for overnight at 37° C., 95% humidity and 5% CO2 prior to assay.
Enteroid cells were incubated with test compound in IEMM for 18-24 hours at 37° C., 95% humidity and 5% CO2. […] Briefly, cells were washed 5 times in Bath 1 Buffer. Bath 1 Dye Solution was added and the cells were incubated for 25 min at room temperature. Following dye incubation, cells were washed 3 times in Chloride Free Dye Solution. Chloride transport was initiated by addition of Chloride Free Dye Stimulation Solution and the fluorescence signal was read for 15 min. […] Chloride transport was then expressed as a percentage of the chloride transport following treatment with 1 μM (14S)-8-[3-(2-{Dispiro[2.0.2.1]heptan-7-yl}ethoxy)-1H-pyrazol-1-yl]-12,12-dimethyl-2λ^6-thia-3,9,11,18,23-pentaazatetracyclo[17.3.1.111,14.05,10]tetracosa-1(22),5,7,9,19(23),20-hexaene-2,2,4-trione, 3 μM (R)-1-(2,2-difluorobenzo[d][1,3]dioxol-5-yl)-N-(1-(2,3-dihydroxypropyl)-6-fluoro-2-(1-hydroxy-2-methylpropan-2-yl)-1H-indol-5-yl)cyclopropanecarboxamide and 300 nM acute N-[2,4-bis(1,1-dimethylethyl)-5-hydroxyphenyl]-1,4-dihydro-4-oxoquinoline-3-carboxamide triple combination control (% Activity).

CFTR, sequence (P13569 with tags, fused parts or gaps DEL508-508): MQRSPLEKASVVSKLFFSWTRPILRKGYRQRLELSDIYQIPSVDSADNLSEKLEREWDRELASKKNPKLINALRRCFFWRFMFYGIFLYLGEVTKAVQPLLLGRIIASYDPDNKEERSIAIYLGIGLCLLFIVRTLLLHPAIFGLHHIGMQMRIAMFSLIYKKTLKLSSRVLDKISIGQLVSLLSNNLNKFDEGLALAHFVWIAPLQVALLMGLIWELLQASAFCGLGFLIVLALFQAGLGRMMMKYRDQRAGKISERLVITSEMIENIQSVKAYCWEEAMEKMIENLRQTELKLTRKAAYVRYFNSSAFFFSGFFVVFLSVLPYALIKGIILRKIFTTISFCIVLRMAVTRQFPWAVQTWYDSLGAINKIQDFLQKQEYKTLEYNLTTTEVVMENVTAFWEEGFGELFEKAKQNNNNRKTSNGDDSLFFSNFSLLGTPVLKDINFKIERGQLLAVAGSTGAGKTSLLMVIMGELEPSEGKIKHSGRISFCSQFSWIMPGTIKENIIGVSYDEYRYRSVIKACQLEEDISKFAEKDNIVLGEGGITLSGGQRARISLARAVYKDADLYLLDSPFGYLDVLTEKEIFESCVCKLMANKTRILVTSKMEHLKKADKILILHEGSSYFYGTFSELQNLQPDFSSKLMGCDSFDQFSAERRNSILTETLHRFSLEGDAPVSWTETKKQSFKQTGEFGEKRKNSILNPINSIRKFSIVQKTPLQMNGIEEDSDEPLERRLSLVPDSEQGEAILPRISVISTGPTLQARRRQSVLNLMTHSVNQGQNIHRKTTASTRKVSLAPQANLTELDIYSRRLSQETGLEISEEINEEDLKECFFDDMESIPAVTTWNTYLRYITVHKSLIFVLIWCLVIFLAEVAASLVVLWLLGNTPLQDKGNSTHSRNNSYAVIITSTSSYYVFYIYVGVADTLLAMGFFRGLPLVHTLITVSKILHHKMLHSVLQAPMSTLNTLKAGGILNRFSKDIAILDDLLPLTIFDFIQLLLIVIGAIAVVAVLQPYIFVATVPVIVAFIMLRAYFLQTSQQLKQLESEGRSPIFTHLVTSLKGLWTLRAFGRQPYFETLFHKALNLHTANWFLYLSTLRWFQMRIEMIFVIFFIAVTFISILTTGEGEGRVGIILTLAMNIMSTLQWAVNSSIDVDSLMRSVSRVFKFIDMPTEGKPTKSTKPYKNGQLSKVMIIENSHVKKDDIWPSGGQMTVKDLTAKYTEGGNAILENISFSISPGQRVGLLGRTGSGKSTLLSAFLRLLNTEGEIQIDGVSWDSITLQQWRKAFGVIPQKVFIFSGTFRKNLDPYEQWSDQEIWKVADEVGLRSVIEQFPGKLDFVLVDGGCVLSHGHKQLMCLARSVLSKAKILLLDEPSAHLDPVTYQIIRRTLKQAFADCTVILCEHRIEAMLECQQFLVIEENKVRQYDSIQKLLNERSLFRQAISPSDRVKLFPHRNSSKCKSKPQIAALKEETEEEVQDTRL

| SMILES | Ent. B Max Activity | EC50 [nM] |
| --- | --- | --- |
| Cc1cccc(C)c1-c1nc2nc(c1C1=CCOCC1)OC[C@@H](C)NC(=O)c1cccc(c1)S(=O)(=O)N2 [Compound 140] | ++ (++ is 30-60%) | 3000 to 30000 |
| COc1cccc(-c2c3nc(nc2-c2c(C)cccc2C)NS(=O)(=O)c2cccc(c2)C(=O)NC[C@@H](C)O3)c1 [Compound 122, (10R)-6-(2,6-Dimethylphenyl)-7-(3-methoxyphenyl)-10-methyl-2,2-dioxo-9-oxa-2λ^6-thia-3,5,12,19-tetrazatricyclo[12.3.1.14,8]nonadeca-1(18),4(19),5,7,14,16-hexaen-13-one] | +++ (+++ is >60%) | < 1000 |
| COCCN1CCC2(CC1)CC(N1C(=O)c3cccc(c3)S(=O)(=O)Nc3nc(c(C)c(-c4c(C)cccc4C)n3)OC[C@H]1CC(C)C)C2 [Compound 55, (11R)-6-(2,6-Dimethylphenyl)-11-isobutyl-12-[7-(2-methoxyethyl)-7-azaspiro[3.5]nonan-2-yl]-7-methyl-2,2-dioxo-9-oxa-2λ^6-thia-3,5,12,19-tetrazatricyclo[12.3.1.14,8]nonadeca-1(18),4(19),5,7,14,16-hexaen-13-one] | +++ (+++ is >60%) | < 1000 |
| Cc1cccc(C)c1-c1nc2nc(c1C)OC[C@@H](CC1(C(F)(F)F)CC1)N(C1CC3(CC(NC(=O)OC(C)(C)C)C3)C1)C(=O)c1cccc(c1)S(=O)(=O)N2 (stereo in doubt) [Compound 97] | +++ (+++ is >60%) | < 1000 |
| Cc1cccc(C)c1-c1nc2nc(c1-c1cnn(C(C)C)c1)O[C@H](C)CNC(=O)c1cccc(c1)S(=O)(=O)N2 [Compound 147] | ++ (++ is 30-60%) | 3000 to 30000 |
| Cc1cccc(C)c1-c1nc2nc(c1C)OC[C@@H](CC1(C(F)(F)F)CC1)N(C1CC3(CC(CO)C3)C1)C(=O)c1cccc(c1)S(=O)(=O)N2 (stereo partly drawn) [Compound 80] | +++ (+++ is >60%) | < 1000 |
| COC(=O)NC1CC2(C1)CC(N1C(=O)c3cccc(c3)S(=O)(=O)Nc3nc(c(C)c(-c4c(C)cccc4C)n3)OC[C@H]1CC(C)C)C2 (stereo in doubt) [Compound 68] | +++ (+++ is >60%) | < 1000 |
| Cc1cccc(C)c1-c1nc2nc(c1C)OC[C@@H](CC1(C(F)(F)F)CC1)N(C1CC3(CC(N)C3)C1)C(=O)c1cccc(c1)S(=O)(=O)N2 (stereo partly drawn) [Compound 92] | +++ (+++ is >60%) | < 1000 |
| Cc1cccc(C)c1-c1nc2nc(c1-c1cnn(CC(C)C)c1)O[C@H](C)CNC(=O)c1cccc(c1)S(=O)(=O)N2 [Compound 127] | +++ (+++ is >60%) | 1000 to 3000 |
| Cc1cccc(C)c1-c1nc2nc(c1C1CCOCC1)O[C@H](C)CNC(=O)c1cccc(c1)S(=O)(=O)N2 [Compound 151] | ++ (++ is 30-60%) |  |
| COC(=O)NC1CC2(C1)CC(N1C(=O)c3cccc(c3)S(=O)(=O)Nc3nc(c(C)c(-c4c(C)cccc4C)n3)OC[C@H]1CC1(C(F)(F)F)CC1)C2 (stereo in doubt) [Compound 88] | +++ (+++ is >60%) | < 1000 |
| Cc1cccc(C)c1-c1nc2nc(c1C)OC(c1ccc(CC3(C(F)(F)F)CC3)cn1)CN(C)C(=O)c1cccc(c1)S(=O)(=O)N2 (stereo not drawn) [Compound 204] | ++ (++ is 30-60%) | < 1000 |
| Cc1cccc(C)c1-c1nc2nc(c1F)OC[C@@H](CC(C)C)N(C1CC3(CC3)C1)C(=O)c1cccc(c1)S(=O)(=O)N2 [Compound 175] | +++ (+++ is >60%) | < 1000 |
| COc1c2nc(nc1-c1c(C)cccc1C)NS(=O)(=O)c1cccc(c1)C(=O)N(C1CC3(CC3)C1)[C@H](CC(C)C)CO2 [Compound 179] | +++ (+++ is >60%) | < 1000 |
| Cc1cccc(C)c1-c1nc2nc(c1F)OC[C@@H](CC(C)C)N(C1CC3(CCN(C(=O)OC(C)(C)C)CC3)C1)C(=O)c1cccc(c1)S(=O)(=O)N2 [Compound 187] | +++ (+++ is >60%) | < 1000 |
| Cc1cccc(C)c1-c1nc2nc(c1C)O[C@@H]1CN(C3CC4(CCCCC4)C3)C[C@H]1NC(=O)c1cccc(c1)S(=O)(=O)N2 [Compound 104, (3R,7R)-19-(2,6-dimethylphenyl)-20-methyl-5-{spiro[3.5]nonan-2-yl}-2-oxa-15λ^6-thia-5,8,16,18,21-pentaazatetracyclo[15.3.1.110,14.03,7]docosa-1(21),10,12,14(22),17,19-hexaene-9,15,15-trione] | +++ (+++ is >60%) | < 1000 |
| Cc1cccc(C)c1-c1nc2nc(c1C)OC[C@@H](CC(C)C)N([C@H]1C[C@@]3(C[C@H](NC(=O)OC(C)C)C3)C1)C(=O)c1cccc(c1)S(=O)(=O)N2 (single isomer, unassigned) [Compound 52] | +++ (+++ is >60%) | < 1000 |
| Cc1cccc(C)c1-c1nc2nc(c1C)OC[C@@H](CC(C)(C)C)N(C1CC3(CC(NC(=O)OC(C)(C)C)C3)C1)C(=O)c1cccc(c1)S(=O)(=O)N2 (single isomer, unassigned) [Compound 59] | +++ (+++ is >60%) | < 1000 |

Continued, values first:

| Ent. B Max Activity | EC50 [nM] | SMILES |
| --- | --- | --- |
| +++ (+++ is >60%) | < 1000 | Cc1cccc(C)c1-c1nc2nc(c1C)OC[C@@H](CC(C)(C)C)N(C1CC3(CC3)C1)C(=O)c1cccc(c1)S(=O)(=O)N2 [Compound 101] |
| +++ (+++ is >60%) | < 1000 | COC1CC(N2C(=O)c3cccc(c3)S(=O)(=O)Nc3nc(c(C)c(-c4c(C)cccc4C)n3)OC[C@H]2CC(C)C)C1 (stereo in doubt) [Compound 71] |
| +++ (+++ is >60%) | < 1000 | Cc1cccc(C)c1-c1nc2nc(c1C)OC[C@@H](CC(C)C)NC(=O)c1cccc(c1)S(=O)(=O)N2 [Compound 73] |
| ++ (++ is 30-60%) | 3000 to 30000 | Cc1cccc(C)c1-c1nc2nc(c1C)OC[C@@H](CCC(C)(C)O)N(CCCC(C)(C)O)C(=O)c1cccc(c1)S(=O)(=O)N2 [Compound 109] |
| ++ (++ is 30-60%) | < 1000 | Cc1cccc(C)c1-c1nc2nc(c1CCC(C)(C)C)OC[C@@H](C)NC(=O)c1cccc(c1)S(=O)(=O)N2 [Compound 125, (11R)-7-(3,3-Dimethylbutyl)-6-(2,6-dimethylphenyl)-11-methyl-2,2-dioxo-9-oxa-2λ^6-thia-3,5,12,19-tetrazatricyclo[12.3.1.14,8]nonadeca-1(18),4(19),5,7,14,16-hexaen-13-one] |
| +++ (+++ is >60%) | < 1000 | COC1CC(N2C(=O)c3cccc(c3)S(=O)(=O)Nc3nc(c(C)c(-c4c(C)cccc4C)n3)OC[C@H]2CC(C)(C)C)C1 (stereo partly drawn) [Compound 83] |
| +++ (+++ is >60%) | < 1000 | Cc1cccc(C)c1-c1nc2nc(c1C)OC[C@@H](CC(C)C)N(C1CC3(CC3)C1)C(=O)c1cccc(c1)S(=O)(=O)N2 [Compound 75] |
| + (+ is <30%) |  | Cc1cccc(C)c1-c1nc2nc(c1C)OC[C@@H](CC(C)(C)O)N(CCCC(C)(C)O)C(=O)c1cccc(c1)S(=O)(=O)N2 [Compound 110] |
| +++ (+++ is >60%) | < 1000 | Cc1cccc(C)c1-c1nc2nc(c1C)OC[C@@H](CC(C)(C)C)N(C1CC3(CC(N(C)C)C3)C1)C(=O)c1cccc(c1)S(=O)(=O)N2 (stereo partly drawn) [Compound 95] |
| ++ (++ is 30-60%) | 3000 to 30000 | Cc1cccc(C)c1-c1nc2nc(c1C)OC[C@@H](CCC(C)(C)O)N(Cc1ncccn1)C(=O)c1cccc(c1)S(=O)(=O)N2 [Compound 113] |
